Reference: patent US11266662B2, “Ganaxolone for use in prophylaxis and treatment of postpartum depression” (Marinus Pharmaceuticals, Inc., priority 2018, dated 2022)
≈ marks a conversion by molar mass, not a printed value.

What was measured:
Solubility of ganaxolone = details: for solubility: organic solvent or mixture
[1] = IV bolus plus continuous IV infusion toxicity in dog, 28 days; details: in vivo
[2] = Human pharmacokinetics after oral administration; details: in vivo
CYP3A4/5 = assay: Ganaxolone levels in subjects taking strong CYP inducers (carbamazepine and phenytoin); details: with strong CYP inducers (carbamazepine and phenytoin)
dogs = assay: Cardiovascular safety pharmacology in dogs, single dose; format: in vivo, dog; details: single dose of up to 15 mg/kg
Experimental: (§1) Safety pharmacology studies were conducted with ganaxolone.

[3] = as above; format: in vivo, dog; details: dog, in vivo, single dose of up to 15 mg/kg
Experimental: as §1

[4] = system: synaptic and extrasynaptic GABAA receptors; assay: Activation of synaptic and extrasynaptic GABAA receptors; details: site distinct from the benzodiazepine site
rabbits = assay: Local tolerance study in rabbits; details: rabbit, in vivo
[5] = Phase 1 study of IV ganaxolone in healthy volunteers (safety, pharmacokinetics, sedation); format: in vivo, human
Experimental: The safety, pharmacokinetics and pharmacodynamics of IV ganaxolone were investigated in healthy 36 volunteers, in which ganaxolone was administered as a bolus dosing (Stage 1) or as a bolus dose followed by a continuous infusion (Stage 2). Ten of the 36 subjects enrolled were women. Stage 1 enrolled and dosed subjects in 4 cohorts (A-D): 6 subjects in Cohort A (10 mg ganaxolone IV bolus in 3 subjects and 30 mg ganaxolone bolus in 3 subjects over 5-minutes), 8 subjects in Cohort B (20 mg ganaxolone bolus over 2-minutes), 8 subjects in Cohort C (30 mg ganaxolone bolus over 1-hour) and 8 subjects in Cohort D (10 mg ganaxolone bolus over 1-hour). Cohorts B, C and D included 2 placebo subjects in each cohort. Stage 2 of the study dosed a total of 6 subjects with a 6 mg bolus followed by a 4-hour infusion at 20 mg/h. Ten of the 36 subjects enrolled in the study were women.
A Phase 1 study in healthy volunteers investigating the safety of IV ganaxolone, infusion of 30 mg/hr for 1 hour, 20 mg over 2 minutes and 20 mg/hr for 4 hours led to peak concentrations of 258, 441 and 215 ng/mL, respectively, without any safety concerns. Sedation was assessed using the Modified Observers Assessment of Alertness/Sedation (MOAAS) scale. On this scale, score 5 indicates no sedation (responds readily to name spoken in normal tone) while score 1 indicates deep sedation (responds only after painful trapezius squeeze). […] The sedation scores reversed quickly after the infusion was stopped. The highest bolus dose tested was 30 mg, which was infused over 5-minutes. This dose led to peak concentration levels (Cmax) of >1,000 ng/mL with no safety concerns (except sedation).

For `CC(=O)[C@H]1CC[C@H]2[C@@H]3CC[C@H]4C[C@](C)(O)CC[C@]4(C)[C@H]3CC[C@]12C` [ganaxolone, 3α-hydroxy-3β-methyl-5α-pregnan-20-one], which solubility (Solubility of ganaxolone; 95% alcohol) is on record?
Its solubility is 13000 µg/mL (≈ 39.1 mM).

And the solubility (Solubility of ganaxolone; polyethylene glycol)?
The solubility was 3100 µg/mL (≈ 9.32 mM).

What about the solubility (Solubility of ganaxolone; propylene glycol) of the same compound?
The solubility was 3500 µg/mL (≈ 10.5 mM).

What about the Concentration dissolved (Solubility of ganaxolone; using water soluble beta cyclodextrins) of the same compound?
The Concentration dissolved was greater than 1 mg/mL.

And the Solubility in water (Solubility of ganaxolone; water)?
Its Solubility in water is “insoluble”.

What about the NOAEL at 28 days [1] of the same compound?
The NOAEL at 28 days was 7.2 mg/kg/day.

What about the Cmax [2] of the same compound?
Its Cmax is 200 to 300 ng/mL.

What about the “Lowering in overall ganaxolone levels and exposure” value (CYP3A4/5) of the same compound?
The value was roughly 45%.

What about the “Effect on cardiovascular parameters” value (dogs) of the same compound?
Its value is “no effect on cardiovascular parameters”.

What about the AUC(0-t) ([3]; read-out: AUC(0-24)) of the same compound?
Its AUC(0-t) is 10000 ng·h/mL.

What about the Cmax ([3]; read-out: Maximum concentration [Cmax]) of the same compound?
Its Cmax is 1000 ng/mL.

What about the “Potency and efficacy in activating GABAA receptors” value [4] of the same compound?
Its value is “comparable to allopregnanolone”.

What about the Local tolerance (rabbits) of the same compound?
Its Local tolerance is “no findings”.

And the Peak concentration ([5]; 20 mg over 2 minutes)?
Its Peak concentration is 441 ng/mL.

What about the Peak concentration ([5]; 20 mg/hr for 4 hours) of the same compound?
Its Peak concentration is 215 ng/mL.

And the “Treatment emergent AEs, seriousness and intensity” value ([5]; Stages 1 and 2)?
The value was “None of the treatment emergent AEs were serious, and all were of mild intensity”.

And the Cmax ([5]; human, in vivo, intravenous, bolus infusion of 30 mg over 5-minutes, read-out: Peak concentration levels (Cmax))?
Its Cmax is greater than 1000 ng/mL.

What about the Peak concentration ([5]; infusion of 30 mg/hr for 1 hour) of the same compound?
The Peak concentration was 258 ng/mL.

What about the “Modified Observers Assessment of Alertness/Sedation (MOAAS) score” value ([5]; score 5 = no sedation, 1 = deep sedation) of the same compound?
Its value is “vast majority of the scores were 5”.
